The results in this text go back to patent publication US4902814A, “Fluorobenzyl esters” (Imperial Chemical Industries PLC, priority 1986, dated 1990).

Like-named read-outs stand apart in the source and are kept apart here.

Type in all cases: in vivo
Assay [1] deals with Diabrotica balteata (rootworm larvae). The assay is described as follows: Mortality test on Diabrotica balteata (DB), residual. The conditions noted are these: 72 h, read-out: DB grading of mortality. The method, then: (§1) The activity of the Product was determined using a variety of insect pests. The Product was used in the form of liquid preparations containing from 100 to 500 parts per million (ppm) by weight of the Product. The preparations were made by dissolving the Product in acetone and diluting the solutions with water containing 0.1% by weight of a wetting agent sold under the trade name "SYNPERONIC" NX until the liquid preparations contained the required concentration of the Product. "SYNPERONIC" is a Registered Trade Mark.
(§2) The test procedure adopted with regard to each pest was basically the same and comprised supporting a number of the pests on a medium which was usually a host plant or a foodstuff on which the pests feed, and treating either or both the pests and the medium with the preparations. The mortality of the pests was then assessed at periods usually varying from one to seven days after the treatment.
(§3) The results of the tests are given in Table III for each of the Products, at the rate in parts per million given in the second column, as a grading of mortality designated as A, B or C wherein A indicates 80-100% mortality or knockdown, B indicates 50-79% mortality or knockdown and C indicates less than 50% mortality or knockdown.
(§4) In Table III the pest organism used is designated by a letter code and the pests species, the support medium or food, and the type and duration of test is given in Table II.

In assay [2] the test system is Myzus persicae (aphids). The assay is described as follows: Mortality test on Myzus persicae (MP), contact. The conditions noted are these: topical, 72 h, read-out: MP grading of mortality; for mortality at 100 ppm: rate 100 ppm. As for the experimental part: as §1, §2, §3, §4
Assay [3] concerns Heliothis virescens (tobacco budworm - larvae). As to the kind of experiment: Mortality test on Heliothis virescens (HV), residual. The conditions noted are these: 72 h, read-out: HV grading of mortality; for mortality at 100 ppm: rate 100 ppm. As for the experimental part: as §1, §2, §3, §4
(tobacco budworm - larvae)

Assay [4] relates to Tetranychus urticae (spider mites - adults). As to the kind of experiment: Mortality test on Tetranychus urticae adults (TUa), contact. The conditions noted are these: topical, 72 h, read-out: TUa grading of mortality; for mortality at 100 ppm: rate 100 ppm. The method, then:
as §1, §2, §3, §4
(spider mites - adults)

Assay [5] relates to Tetranychus urticae (spider mites - ova). As to the kind of experiment: Mortality test on Tetranychus urticae ova (TUe), contact. The conditions noted are these: topical, 144 h, read-out: TUe grading of mortality; for mortality at 100 ppm: rate 100 ppm. As for the experimental part:
as §1, §2, §3, §4

In assay [6] the test system is Blattella germanica (cockroach nymphs). As to the kind of experiment: Mortality test on Blattella germanica (BG), residual. The conditions noted are these: 72 h, read-out: BG grading of mortality. As for the experimental part: as §1, §2, §3, §4
Assay [7] relates to Spodoptera exigua (lesser army worm - larvae). As to the kind of experiment: Mortality test on Spodoptera exigua (SP), residual. As to conditions: 72 h, read-out: SP grading of mortality. As for the experimental part:
as §1, §2, §3, §4
(lesser army worm - larvae)

Assay [8] deals with Musca domestica (houseflies - adults). As to the kind of experiment: Mortality test on Musca domestica (MD), contact. As to conditions: topical, 24 h, read-out: MD grading of mortality; for mortality at 100 ppm: rate 100 ppm. The method, then:
as §1, §2, §3, §4

For assay [9], the system named is Nephotettix cincticeps (green leaf hopper - nymphs). The assay is described as follows: Mortality test on Nephotettix cincticeps (NC), contact. The conditions noted are these: topical, 72 h, rice plant, 3 days, read-out: NC grading of mortality; for mortality at 100 ppm: rate 100 ppm; for mortality at 500 ppm: rate 500 ppm. The method, then: as §1, §2, §3, §4
NC Nephotettix cincticeps

Setting [10] is: Chinese cabbage leaf, contact, 3 days.
Setting [11] is: French bean leaf, contact, 3 days.
[12] abbreviates: French bean leaf, contact, 6 days.
The mark [13] stands for this setting: cotton wool/sugar, contact, 1 day.
Where [14] appears, read: rate 500 ppm, Chinese cabbage leaf, contact, 3 days.
Setting [15] is: rate 500 ppm, cotton leaf, residual, 3 days.
The mark [16] stands for this setting: rate 500 ppm, French bean leaf, contact, 6 days.
Setting [17] is: rate 500 ppm, cotton wool/sugar, contact, 1 day.
Setting [18] is: rate 500 ppm, French bean leaf, contact, 3 days.
[19] abbreviates: rate 500 ppm, filter paper/maize seed, residual, 3 days.
[20] abbreviates: rate 500 ppm, plastic pot, residual, 3 days.

Usually mortality stands for the percentage killed. On to `CC1(C)C(C=C(F)F)C1C(=O)OCc1ccc(F)c(Cc2ccccc2)c1` (racemic) [III], for which the mortality at 100 ppm in assay [1] (in Zea mays) is 80 to 100%; in assay [2] (setting [10]) it was 80 to 100%; in assay [3] (cotton leaf, residual, 3 days) it was 80 to 100%; in [4] (setting [11]), 50 to 79%; in [5] (setting [12]) it was < 50%; in assay [6], < 50%. For the same molecule, the mortality at 100 ppm in [7] (in Gossypium hirsutum) and in assay [8] (setting [13]) was 80 to 100% in each case.
For `CC1(C)C(C=C(Br)Br)C1C(=O)OCc1ccc(F)c(Cc2ccccc2)c1` (racemic) [X], the mortality at 500 ppm was 80 to 100% in assay [1] (in Zea mays); 80 to 100% in [2] (setting [14]); 80 to 100% in [3] (setting [15]); < 50% in assay [5] (setting [16]); 80 to 100% in assay [6]; 80 to 100% in assay [7] (in Gossypium hirsutum). The mortality at 500 ppm in assay [8] (setting [17]) is 80 to 100%.
On to `CC1(C)[C@H](C(=O)OC(C#N)c2ccc(F)c(Cc3ccccc3)c2)[C@@H]1/C=C(\Cl)C(F)(F)F` (relative stereo) [II], for which the mortality at 500 ppm in assay [1] (in Zea mays), in [2] (setting [14]), in assay [3] (setting [15]), in assay [4] (setting [18]), in assay [5] (setting [16]) and in assay [6] was 80 to 100% in each case. Moreover, the mortality at 500 ppm in assay [7] (in Gossypium hirsutum) and in assay [8] (setting [17]) was 80 to 100% in each case.
For the molecule `CC1(C)[C@H](C=C(Cl)Cl)[C@H]1C(=O)OCc1ccc(F)c(Cc2ccccc2)c1` (relative stereo) [IV], the mortality at 100 ppm in assay [1] (in Zea mays) was 80 to 100%; in assay [2] (setting [10]) it was 80 to 100%; in assay [3] (cotton leaf, residual, 3 days), 80 to 100%; in assay [9], 80 to 100%; in [4] (setting [11]), < 50%; in assay [5] (setting [12]), < 50%. Further, the mortality at 100 ppm is < 50% in assay [6], 80 to 100% in assay [7] (in Gossypium hirsutum) and 80 to 100% in assay [8] (setting [13]).
On to `CC1(C)[C@H](C=C(C(F)(F)F)C(F)(F)F)[C@H]1C(=O)OCc1ccc(F)c(Cc2ccccc2)c1` (relative stereo) [IX], for which the mortality at 500 ppm in assay [1] (in Zea mays) was 80 to 100%; in assay [2] (setting [14]), 80 to 100%; in [3] (setting [15]) it was 80 to 100%; in assay [4] (setting [18]), 80 to 100%; in [5] (setting [16]), < 50%; in [6], 80 to 100%. The mortality at 500 ppm in assay [7] (in Gossypium hirsutum) and in [8] (setting [17]) was 80 to 100% throughout.
Consider `CC1(C)[C@H](/C=C(\Cl)C(F)(F)F)[C@@H]1C(=O)OCc1ccc(F)c(Cc2ccccc2)c1` (relative stereo) [I], for which the mortality at 500 ppm in [1] (in Zea mays), in assay [2] (setting [14]), in assay [3] (setting [15]), in assay [4] (setting [18]), in [5] (setting [16]) and in [6] was 80 to 100% each time. In addition, the mortality at 500 ppm in [7] (in Gossypium hirsutum) and in assay [8] (setting [17]) was 80 to 100% in each case.
Turning to `CC(C)(C)c1ncc([C@@H]2[C@@H](C(=O)OCc3ccc(F)c(Cc4ccccc4)c3)C2(C)C)cn1` (relative stereo) [XI], the mortality at 500 ppm in assay [1] (setting [19]) is 80 to 100%; in [2] (in Brassica rapa), 80 to 100%; in [3] (in Gossypium hirsutum), 80 to 100%; in [4], 80 to 100%; in assay [5] (in Phaseolus vulgaris), 80 to 100%; in [6] (setting [20]), < 50%. The figures for the mortality at 500 ppm in [7] (setting [15]) and in assay [8] were 80 to 100% and 50 to 79%, respectively.
`CC(C)=CC1C(C(=O)OCc2ccc(F)c(Cc3ccccc3)c2)C1(C)C` (centres unmarked) [VIII]: the mortality at 500 ppm in assay [1] (in Zea mays) was 80 to 100%; in assay [2] (setting [14]), 80 to 100%; in [3] (setting [15]) it was 80 to 100%; in [4] (setting [18]) it was < 50%; in [5] (setting [16]), < 50%; in assay [6], < 50%. Also, the mortality at 500 ppm in [7] (in Gossypium hirsutum) and in assay [8] (setting [17]) was 80 to 100% each time.
With `CC1(C)C(C(=O)OCc2ccc(F)c(Cc3ccccc3)c2)C1(C)C` [VII], the mortality at 500 ppm in assay [1] (setting [19]) is 80 to 100%; in [2] (setting [14]) it was 80 to 100%; in [3] (setting [15]) it was 80 to 100%; in [5] (setting [16]), < 50%; in assay [6] (setting [20]), 80 to 100%; in assay [7] (setting [15]), < 50%. Besides, in assay [8] (setting [17]), the mortality at 500 ppm was 80 to 100%.
As to `CC1(C)[C@H](C(=O)OC(C#N)c2ccc(F)c(Cc3ccccc3)c2)[C@@H]1/C=C(\Cl)C(F)(F)F` (some centres unmarked) [VI], the mortality at 100 ppm is 80 to 100% in [1] (in Zea mays); 80 to 100% in assay [2] (setting [10]); 80 to 100% in assay [3] (cotton leaf, residual, 3 days); 80 to 100% in [9]; 80 to 100% in assay [4] (setting [11]); < 50% in assay [5] (setting [12]). Further, the mortality at 100 ppm in assay [6], in [7] (in Gossypium hirsutum) and in assay [8] (setting [13]) was 80 to 100% throughout.
As for `CC1(C)[C@H](C(=O)OCc2ccc(F)c(Cc3ccccc3)c2)[C@@H]1/C=C(\Cl)C(F)(F)F` [V], the mortality at 500 ppm in [1] (in Zea mays), in assay [2] (setting [14]), in [3] (setting [15]), in assay [9], in [4] (setting [18]) and in [5] (setting [16]) was 80 to 100% in each case. Further, the mortality at 500 ppm in assay [7] (in Gossypium hirsutum) and in assay [8] (setting [17]) was 80 to 100% in each case.
Turning to `CC(OC(=O)C1C(C=C(Cl)C(F)(F)F)C1(C)C)c1ccc(F)c(Cc2ccccc2)c1` (centres unmarked) [XIII], the mortality at 500 ppm in assay [1] (in Zea mays), in [2] (setting [14]), in assay [3] (setting [15]), in assay [9], in [4] (setting [18]) and in assay [6] was 80 to 100% throughout. The mortality at 500 ppm in [7] (in Gossypium hirsutum) and in assay [8] (setting [17]) was 80 to 100% each time.
`CC(C)(C)c1ncc(C2C(C(=O)OC(C#N)c3ccc(F)c(Cc4ccccc4)c3)C2(C)C)cn1` (centres unmarked) [XII]: the mortality at 500 ppm in assay [1] (setting [19]) is 80 to 100%; in assay [2] (in Brassica rapa), 50 to 79%; in [3] (in Gossypium hirsutum) it was < 50%; in [4] it was 80 to 100%; in assay [5] (in Phaseolus vulgaris), 50 to 79%; in assay [6] (setting [20]), < 50%. Also, the mortality at 500 ppm in assay [7] (setting [15]) and in assay [8] was < 50% in each case.
